Experimental data published in paper PMC11389776, “Positive allosteric modulation of a GPCR ternary complex” (Science Advances, 2024).

Assays:
M2 mAChR [1] = target: T1, M2 mAChR (Homo sapiens, UniProt P08172, DEL226-389); experiment: [3H]-NMS association and dissociation assays at M2 mAChR nanodiscs; assay type: binding
T1 construct: made in house; host or cells: Sf9 insect cells (receptor, baculovirus); Trichoplusia ni Hi5 cells (G protein); E. coli BL21(DE3) (cMSP1D1 scaffold)
T1 sequence (P08172 with tags, fused parts or gaps DEL226-389): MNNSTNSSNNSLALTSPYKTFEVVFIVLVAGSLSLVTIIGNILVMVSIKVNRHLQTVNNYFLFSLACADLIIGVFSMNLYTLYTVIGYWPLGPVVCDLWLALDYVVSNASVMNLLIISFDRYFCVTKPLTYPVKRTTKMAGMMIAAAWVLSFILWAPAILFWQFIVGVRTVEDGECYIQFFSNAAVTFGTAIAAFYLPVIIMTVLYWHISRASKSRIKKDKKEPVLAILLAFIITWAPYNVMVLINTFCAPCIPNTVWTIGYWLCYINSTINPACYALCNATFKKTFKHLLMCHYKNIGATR
Experimental: (§1) The affinity of [^3H]-NMS for M2 mAChR in nanodiscs, as well as the concentration of receptor in nanodiscs, was determined through saturation binding with [^3H]-NMS. M2 nanodiscs were incubated with a range of concentrations of [^3H] NMS in a final volume of 200 μl of binding buffer [20 mM Hepes (pH 7.5), 100 mM NaCl, 10 mM MgCl2, and 0.5% bovine serum albumin] for 6 hours at RT. […] Membrane equilibrium binding experiments were performed with 15 μg of membrane expressing the WT hM2 mAChR in a 300-μl reaction volume of binding buffer with or without 100 μM Gpp[NH]pp in deep 96-well plates for 6 hours at RT. […] For all radioligand binding experiments, nonspecific binding was defined by 10 μM Atr and the assay was terminated through rapid filtration through Whatman GF/B filter plates using a 96-well harvester (PerkinElmer). Filter plates were dried overnight, and radioactivity was determined by adding 40 μl of MicroScint-O scintillation fluid and counting in a MicroBeta^2 Plate Counter (PerkinElmer Life Sciences).
(§2) All data were analyzed using GraphPad Prism 9 (GraphPad Software, San Diego, CA). Concentration-response curves were fit with a three-parameter logistic equation to quantify potency (pEC50) and an operational model of agonism to derive an efficacy parameter (log τ) ([69]). […] For competition binding experiments between [^3H]-NMS and a range of concentrations of unlabeled orthosteric agonist at M2 mAChR nanodiscs in the presence of G protein and for competition binding at M2 mAChR membranes, data were fit to a two-site competition binding model or a one-site competition binding model. […] Monoexponential decay and one-phase association equations were fit to the radioligand dissociation and association data at M2 mAChR nanodiscs. Kinetic TRUPATH data were analyzed using a “baseline then rise to steady state with drift” equation ([44]).

M2ΔICL3 mAChR = target: T2, M2ΔICL3 mAChR (Homo sapiens, UniProt P08172, DEL226-389); experiment: ERK1/2 phosphorylation assay in M2ΔICL3 mAChR FlpIn CHO cells; assay type: cell-based; details: pERK1/2, M2ΔICL3 mAChR FlpIn CHO cells, normalized to FBS; three-parameter logistic
T2 construct: expressed in transfected cells
T2 sequence (P08172 with tags, fused parts or gaps DEL226-389): T1 sequence (P08172 with tags, fused parts or gaps DEL226-389)
Experimental: as §2

M2 mAChR [2] = target: T3, M2 mAChR (Homo sapiens, UniProt P08172); experiment: Gi1 (TRUPATH) protein activation assay in M2 mAChR FlpIn CHO cells; assay type: cell-based
T3 construct: expressed in transfected cells
T3 sequence (P08172 1-466): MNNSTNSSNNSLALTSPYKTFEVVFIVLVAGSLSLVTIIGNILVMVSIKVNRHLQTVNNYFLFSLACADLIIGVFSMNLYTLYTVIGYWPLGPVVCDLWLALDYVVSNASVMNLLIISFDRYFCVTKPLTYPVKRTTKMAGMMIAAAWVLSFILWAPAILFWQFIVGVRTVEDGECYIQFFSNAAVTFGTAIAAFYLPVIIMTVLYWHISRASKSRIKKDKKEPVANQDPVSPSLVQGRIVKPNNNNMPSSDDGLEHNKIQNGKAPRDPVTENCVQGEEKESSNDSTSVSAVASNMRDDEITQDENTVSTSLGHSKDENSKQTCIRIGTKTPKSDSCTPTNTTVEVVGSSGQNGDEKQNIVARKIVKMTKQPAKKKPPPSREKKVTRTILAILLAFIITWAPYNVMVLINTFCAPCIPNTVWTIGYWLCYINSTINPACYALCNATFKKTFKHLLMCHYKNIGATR
Experimental: Upon 60 to 80% confluence, WT hM2 mAChR expressing FlpIn CHO cells were transfected transiently using polyethylenimine (Sigma-Aldrich) with 10 ng per well of each the G protein TRUPATH biosensors pcDNA5/FRT/TO-Gαi1-RLuc8/pcDNA3.1-β3/pcDNA3.1-Gγ9-GFP2 giving a ratio of 1:1:1 ratio with 30 ng in total. Cells were plated at 30,000 cells per well into 96-well Greiner CELLSTAR white-walled plates (Sigma-Aldrich). Forty-eight hours later, cells were washed with 200 μl of PBS and replaced with 1x Hanks’ balanced salt solution supplemented with 10 mM Hepes. […] The ratio was vehicle corrected using the initial four baseline measurements and then baseline corrected again using the vehicle-treated wells. Concentration-response curves were constructed from the area under the curve (AUC) of the double baseline-corrected kinetic traces and normalized to the highest AUC value in each dataset.
(§3) All data were analyzed using GraphPad Prism 9 (GraphPad Software, San Diego, CA). […] For competition binding experiments between [^3H]-NMS and a range of concentrations of unlabeled orthosteric agonist at M2 mAChR nanodiscs in the presence of G protein and for competition binding at M2 mAChR membranes, data were fit to a two-site competition binding model or a one-site competition binding model. […] Monoexponential decay and one-phase association equations were fit to the radioligand dissociation and association data at M2 mAChR nanodiscs.

M2 mAChR [3] = target: T3, M2 mAChR; experiment: Kinetic Gαi1 (TRUPATH) protein activation assay in M2 mAChR CHO cells; assay type: cell-based; details: for Steady state: final effect level, normalized to ACh
Experimental: Upon 60 to 80% confluence, WT hM2 mAChR expressing FlpIn CHO cells were transfected transiently using polyethylenimine (Sigma-Aldrich) with 10 ng per well of each the G protein TRUPATH biosensors pcDNA5/FRT/TO-Gαi1-RLuc8/pcDNA3.1-β3/pcDNA3.1-Gγ9-GFP2 giving a ratio of 1:1:1 ratio with 30 ng in total. Cells were plated at 30,000 cells per well into 96-well Greiner CELLSTAR white-walled plates (Sigma-Aldrich). Forty-eight hours later, cells were washed with 200 μl of PBS and replaced with 1x Hanks’ balanced salt solution supplemented with 10 mM Hepes. […] Cells were further incubated for 10 min at 25°C before BRET measurements were performed on a PHERAstar FSX plate reader (BMG Labtech) using 410/80-nm and 515/30-nm filters. […] The BRET signal was calculated as the ratio of 515/30-nm emission over 410/80-nm emission. The ratio was vehicle corrected using the initial four baseline measurements and then baseline corrected again using the vehicle-treated wells. Concentration-response curves were constructed from the area under the curve (AUC) of the double baseline-corrected kinetic traces and normalized to the highest AUC value in each dataset.
as §2

M2 mAChR [4] = target: T1, M2 mAChR; experiment: [3H]-NMS interaction binding with LY211 and/or G protein at M2 mAChR nanodiscs (full interaction and titration); details: ATCM
Experimental: as §1, with “[^3H]” for “[^3H] NMS in a final volume of 200 μl of binding buffer [20 mM Hepes (pH 7.5), 100 mM NaCl, 10 mM MgCl2, and 0.5% bovine serum albumin] for 6 hours at RT.”
as §3

M2 mAChR [5] = target: T1, M2 mAChR; experiment: [3H]-NMS competition binding at M2 mAChR nanodiscs with or without Gi1 protein
Experimental: as §1, with “[^3H]” for “[^3H] NMS in a final volume of 200 μl of binding buffer [20 mM Hepes (pH 7.5), 100 mM NaCl, 10 mM MgCl2, and 0.5% bovine serum albumin] for 6 hours at RT.”
as §3

[6] = saturating orthosteric agonist + LY211
[7] = Titration against KD concentration of [3H]-NMS

C[N+]1(C)[C@@H]2CC(OC(=O)[C@H](CO)c3ccccc3)C[C@H]1[C@@H]1O[C@@H]12 (some centres unmarked) [[^3H]-NMS, [^3H]-N-methylscopolamine]
B max (M2 mAChR [1]; +10 μM LY211): 115 ± 13.2 (3) | B max (M2 mAChR [1]; +10 μM LY211 + Gi1): 20.33 ± 4.96 (3) | B max (M2 mAChR [1]; [3H]-NMS only, maximal binding at equilibrium, one-phase association model): 131 ± 4.71 (3) | k off (M2 mAChR [1]; [3H]-NMS only, monoexponential decay): 0.150 ± 0.011 (4) min^−1

C[N+](C)(C)CC#CCOC1=NOCC1 [Ipx, iperoxo]
pEC50 (M2ΔICL3 mAChR): 8.23 ± 0.16 | pEC50 (M2 mAChR [2]; Gi1 activation (BRET), M2 mAChR FlpIn CHO cells, three-parameter logistic equation): 9.18 ± 0.22 (7) | Log τ (M2 mAChR [2]; operational efficacy, operational model of agonism, LY211 value is an estimate (saturation not reached)): 1.61 ± 0.25 (7) | Steady state (M2 mAChR [3]; saturating amount of drug alone): 102 ± 0.95 (3) | Steady state (M2 mAChR [3]; [6]): 114 ± 0.68 (4) | Initial rate (M2 mAChR [3]; saturating amount of drug alone, baseline then rise to steady state with drift model): 217 ± 6.48 (3) BRET units min^−1 | Initial rate (M2 mAChR [3]; [6]): 586 ± 26.8 (4) BRET units min^−1 | (LY211) - Log αAgonist (M2 mAChR [4]; Full interaction, − G protein heterotrimer, cooperativity between orthosteric agonist and LY211): 2.05 ± 0.21 (4) | increase in affinity between pKi(Low) and pKi(High) (M2 mAChR [5]; M2 mAChR nanodiscs, shift promoted by Gi1): 112 fold | increase in agonist affinity in the presence of 10 μM LY211 (M2 mAChR [5]; M2 mAChR nanodiscs, without G protein): 112 fold | (G protein) - Log α (M2 mAChR [5]; Nanodisc, cooperativity between agonist and G protein (Gi1), ATCM): 2.33 ± 0.18 (3) | pKi(Low) (M2 mAChR [5]; Nanodisc, two-site competition binding model, 6 hours at RT): 7.72 ± 0.06 (11) | FracHi - M2 mAChR nanodiscs - receptor:G protein molar ratio 1:0 (M2 mAChR [5]; fraction of receptors in high-affinity state, two-site model, R:G 1:0): 0.12 ± 0.04 (11) | FracHi - M2 mAChR nanodiscs - receptor:G protein molar ratio 1:500 (M2 mAChR [5]; fraction of receptors in high-affinity state, two-site model, R:G 1:500 (Gi1)): 0.68 ± 0.06 (3) | FracHi - M2 mAChR nanodiscs - receptor:G protein molar ratio 1:1000 (M2 mAChR [5]; fraction of receptors in high-affinity state, two-site model, R:G 1:1000 (Gi1)): 0.76 ± 0.06 (3) | FracHi - M2 mAChR nanodiscs - receptor:G protein molar ratio 1:2000 (M2 mAChR [5]; fraction of receptors in high-affinity state, two-site model, R:G 1:2000 (Gi1)): 0.91 ± 0.05 (3)

G protein heterotrimer: purified WT G protein heterotrimer (Gαi1β1γ2)
Log α[3H]-NMS (M2 mAChR [4]; [7]): −0.55 ± 0.16 (10) | pKB (M2 mAChR [4]; [7]): 7.37 ± 0.22 (10) | Log α[3H]-NMS (M2 mAChR [4]; Titration against KD concentration of [3H]-NMS, listed as Gi1): −0.55 ± 0.16
